Several values for one entry are separate records, joined by “and”; a condition that tells them apart may be missing. Equal values may be shown once. Read-outs that look alike come from different tables or passages of the source.
What was measured:
Phakopsora pachyrhizi = Phakopsora pachyrhizi on leaf disks from treated whole soybean plants; type: in vivo; details: evaluation 11 to 14 days after inoculation; for inhibition at 0.25 g/ha / inhibition at 0.5 g/ha / inhibition at 1 g/ha / inhibition at 2 g/ha: Phakopsora pachyrhizi, foliar
Protocol: Phakopsora pachyrhizi (Soybean Rust):
Whole soybean plants are treated with the recited active ingredients 4 weeks after planting. 1 day after spraying leaf disks are cut from the first trifoliate leaf. Five repetitions at each rate are conducted. The leaf disks are inoculated with Phakopsora pachyrhizi (Asian soybean rust) one day after treatment. Evaluation of the leaf disks is conducted 11 to 14 days after inoculation and the activity is derived from the relation of the treated vs untreated, infested check. The rates of the active ingredients used are given in Table as g active ingredient (a.i.)/ha.

Septoria tritici = Septoria tritici growth inhibition in nutrient broth (microtiter plate); type: cell-based; details: Zymoseptoria tritici, read-out: Observed Activity (%)
Protocol: Septoria tritici (Leaf Blotch):
(§1) Conidia of the fungus from cryogenic storage were directly mixed into nutrient broth (PDB potato dextrose broth). A DMSO solution of the test compounds was placed into a microtiter plate (96-well format) and the nutrient broth containing the fungal spores was added to it. The test plates were incubated at 24° C. and the inhibition of growth was determined photometrically after 72 hrs.

Corynespora cassiicola = Corynespora cassiicola growth inhibition in nutrient broth (microtiter plate); type: cell-based; details: read-out: Observed Activity (%)
Protocol: Corynespora cassiicola (Target Spot of Soybean, Target Leaf Spot of Tomato):
as §1, with “3-4 days at 620 nm.” for “72 hrs.”

[1] = single active, 0.5 g/ha, read-out: Observed Activity (%)
[2] = single active, read-out: Observed Activity (%)

CNC(=O)C(F)(F)c1ccc(-c2noc(C(F)(F)F)n2)cc1 [Compound A-1.1, 2,2-difluoro-N-methyl-2-[4-[5-(trifluoromethyl)-1,2,4-oxadiazol-3-yl]phenyl]acetamide]
inhibition at 0.25 g/ha (Phakopsora pachyrhizi; single active, 0.25 g/ha, read-out: Observed Activity (%)): 0%
inhibition at 0.5 g/ha (Phakopsora pachyrhizi; [1]): 3%
inhibition at 1 g/ha (Phakopsora pachyrhizi; [2]): 54%
inhibition at 5 ppm (Septoria tritici; single active, 72 hrs, 24° C.): 20%
inhibition at 10 ppm (Septoria tritici; single active, 10 ppm, 72 hrs, 24° C.): 20%
inhibition at 20 ppm (Septoria tritici; single active, 20 ppm, 72 hrs, 24° C.): 50%

CNC(=S)c1ccc(-c2noc(C(F)(F)F)n2)cc1 [Compound A-1.2, N-methyl-4-[5-(trifluoromethyl)-1,2,4-oxadiazol-3-yl]benzenecarbothioamide]
inhibition at 0.5 g/ha (Phakopsora pachyrhizi; [1]): 0%
inhibition at 1 g/ha (Phakopsora pachyrhizi; [2]): 88%
inhibition at 2 g/ha (Phakopsora pachyrhizi; [2]): 95%
inhibition at 5 ppm (Corynespora cassiicola; single active, 5 ppm, 3-4 days, 24° C.): 0%
inhibition at 10 ppm (Corynespora cassiicola; single active, 10 ppm, 3-4 days, 24° C.): 0%
inhibition at 20 ppm (Corynespora cassiicola; single active, 20 ppm, 3-4 days, 24° C.): 0%
inhibition at 5 ppm (Septoria tritici; single active, 72 hrs, 24° C.): 50%

O=C(Nc1ccccc1F)c1ccc(-c2noc(C(F)(F)F)n2)cc1 [Compound A-1.3, N-(2-fluorophenyl)-4-[5-(trifluoromethyl)-1,2,4-oxadiazol-3-yl]benzamide]
inhibition at 0.5 g/ha (Phakopsora pachyrhizi; [1]): 0%
inhibition at 1 g/ha (Phakopsora pachyrhizi; [2]): 29%
inhibition at 2 g/ha (Phakopsora pachyrhizi; [2]): 78%

C[C@@H]1CC(C)(C)c2cccc(NC(=O)c3cn(C)nc3C(F)F)c21 [Inpyrfluxam, 3-(difluoromethyl)-1-methyl-N-[(3R)-1,1,3-trimethylindan-4-yl]pyrazole-4-carboxamide, reference compound]
inhibition at 0.25 g/ha (Phakopsora pachyrhizi; read-out: Observed Activity (%), single active, 0.25 g/ha): 50%
Observed Activity (%) (Phakopsora pachyrhizi; single active, 0.5 g/ha): 46% and 82%
inhibition at 0.01 ppm (Corynespora cassiicola): 0%
inhibition at 0.02 ppm (Corynespora cassiicola): 0%
inhibition at 0.02 ppm (Septoria tritici; 72 h): 0%
inhibition at 0.04 ppm (Septoria tritici; 72 h): 20%

Reference: patent US20230337674A1, “FUNGICIDAL COMPOSITIONS” (SYNGENTA CROP PROTECTION AG, priority 2020, published 2023)
